Experimental data from article PMC4000009, “Ardisia crispa roots inhibit cyclooxygenase and suppress angiogenesis” (BMC Complementary and Alternative Medicine, 2014).

Tests used:
COX-2 = molecular target: T1, COX-2 (Ovis aries, UniProt P79208); assay: Colorimetric COX (ovine) inhibitor screening assay, COX-2; format: biochemical; details: read-out: Percentage of COX inhibition (%) COX-2
T1 construct: purchased Cayman 760111
T1 sequence (P79208 17-603): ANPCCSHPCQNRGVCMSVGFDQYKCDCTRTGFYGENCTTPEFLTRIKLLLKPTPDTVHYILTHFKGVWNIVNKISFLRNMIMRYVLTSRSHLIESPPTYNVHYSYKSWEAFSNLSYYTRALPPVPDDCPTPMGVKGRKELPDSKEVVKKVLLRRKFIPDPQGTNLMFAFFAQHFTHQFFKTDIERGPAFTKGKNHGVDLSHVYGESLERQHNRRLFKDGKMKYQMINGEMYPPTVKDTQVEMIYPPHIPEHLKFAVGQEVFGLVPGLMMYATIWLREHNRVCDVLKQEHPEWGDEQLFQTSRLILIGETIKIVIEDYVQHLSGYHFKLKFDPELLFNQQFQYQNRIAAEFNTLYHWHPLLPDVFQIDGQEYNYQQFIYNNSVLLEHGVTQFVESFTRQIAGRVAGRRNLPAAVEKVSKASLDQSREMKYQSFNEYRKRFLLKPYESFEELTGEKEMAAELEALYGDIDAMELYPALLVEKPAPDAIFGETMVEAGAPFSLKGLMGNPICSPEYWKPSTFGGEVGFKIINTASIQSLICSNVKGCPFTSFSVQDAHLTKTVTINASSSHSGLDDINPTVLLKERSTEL
Procedure: (§1) Cyclooxygenase activity assay was performed according to Yang et al., with slight modification. […] The assay was conducted by monitoring the appearance of oxidized N, N, N’, N’- tetramethyl-p-phenediamine (TMPD) at […]. […] The plate was shaken for a few seconds and incubated for 5 min at 25°C. 20 μl of the colorimetric substrate solution (TMPD) was added to all of the wells. 20 μl of arachidonic acid was added to all the wells. The plate was shaken for a few seconds and incubated for 5 min at 25°C. The absorbance was measured at 590 nm using a microplate reader. Average absorbance was calculated for all the samples (n = 3) in order to determine the percentage of inhibition. The calculation of inhibitory percentage is as portrayed below:
(§2) %inhibition=100%initialactivity‒inhibitorwells/100%initialactivity×100
(§3) In mouse sponge implantation assay, statistical analysis was performed using SPSS version 16. One-way Analysis of Variance (ANOVA) with post-hoc test of Least Significant Difference (LSD) were utilised with P < 0.05 was considered to be statistically significant. The results were reported as mean ± SEM. For in vitro studies, average of the results obtained was determined in order to construct a graph, whereby IC50 of each groups were identified, respectively. IC50 was calculated using GraphPad Prism 5 software. Data were reported as mean ± SEM.

[1] = molecular target: T2, Soybean lipoxygenase type I-B (Glycine max, UniProt P08170); assay: Soy lipoxygenase inhibitory assay; format: biochemical
T2 construct: purchased Sigma Aldrich
T2 sequence (P08170 1-839): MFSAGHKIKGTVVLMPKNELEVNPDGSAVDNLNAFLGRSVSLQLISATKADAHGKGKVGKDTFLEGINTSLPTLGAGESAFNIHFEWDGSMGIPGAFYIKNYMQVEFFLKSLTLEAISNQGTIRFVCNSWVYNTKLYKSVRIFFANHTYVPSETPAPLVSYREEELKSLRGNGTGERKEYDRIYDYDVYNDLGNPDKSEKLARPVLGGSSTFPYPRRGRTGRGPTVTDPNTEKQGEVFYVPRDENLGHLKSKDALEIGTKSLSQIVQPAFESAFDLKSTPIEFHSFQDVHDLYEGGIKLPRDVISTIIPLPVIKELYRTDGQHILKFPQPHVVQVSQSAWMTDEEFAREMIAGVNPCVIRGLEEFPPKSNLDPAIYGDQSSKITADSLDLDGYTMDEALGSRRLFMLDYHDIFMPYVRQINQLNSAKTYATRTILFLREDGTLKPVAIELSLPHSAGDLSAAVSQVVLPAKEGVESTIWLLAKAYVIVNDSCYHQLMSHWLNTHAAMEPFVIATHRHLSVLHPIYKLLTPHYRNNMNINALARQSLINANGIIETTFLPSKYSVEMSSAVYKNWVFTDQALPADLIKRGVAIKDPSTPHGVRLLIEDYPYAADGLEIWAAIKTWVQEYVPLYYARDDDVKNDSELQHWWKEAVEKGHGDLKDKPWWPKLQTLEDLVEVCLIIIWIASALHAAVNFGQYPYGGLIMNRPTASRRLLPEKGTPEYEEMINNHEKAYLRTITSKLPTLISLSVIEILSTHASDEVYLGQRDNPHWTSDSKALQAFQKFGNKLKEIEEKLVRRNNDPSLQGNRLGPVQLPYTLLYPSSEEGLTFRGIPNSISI
Procedure: Soy lipoxygenase inhibitory assay was performed according to the method proposed by Azhar-Ul-Haq et al.. Rutin was used as positive control. 160 μl of 100 mM sodium phosphate buffer (pH8.0), 10 μl of ACRH and QRF were dissolved in ethanol in different concentrations (200 μg/mL, 100 μg/mL, 50 μg/mL, 25 μg/mL, and 12.5 μg/mL) and 20 μl of lipoxygenase solution were mixed in the well and incubated for 10 mins at room temperature. The reaction was then initiated by adding 10 μl of linoleic solution and the absorbance was determined at 234 nm after 6 minutes. All concentrations were performed in triplicate. The IC50 value was then calculated.
as §3

COX-1 = molecular target: T3, COX-1 (Ovis aries, UniProt P05979); assay: Colorimetric COX (ovine) inhibitor screening assay, COX-1; format: biochemical; details: n = 3
T3 construct: purchased Cayman 760111
T3 sequence (P05979 25-600): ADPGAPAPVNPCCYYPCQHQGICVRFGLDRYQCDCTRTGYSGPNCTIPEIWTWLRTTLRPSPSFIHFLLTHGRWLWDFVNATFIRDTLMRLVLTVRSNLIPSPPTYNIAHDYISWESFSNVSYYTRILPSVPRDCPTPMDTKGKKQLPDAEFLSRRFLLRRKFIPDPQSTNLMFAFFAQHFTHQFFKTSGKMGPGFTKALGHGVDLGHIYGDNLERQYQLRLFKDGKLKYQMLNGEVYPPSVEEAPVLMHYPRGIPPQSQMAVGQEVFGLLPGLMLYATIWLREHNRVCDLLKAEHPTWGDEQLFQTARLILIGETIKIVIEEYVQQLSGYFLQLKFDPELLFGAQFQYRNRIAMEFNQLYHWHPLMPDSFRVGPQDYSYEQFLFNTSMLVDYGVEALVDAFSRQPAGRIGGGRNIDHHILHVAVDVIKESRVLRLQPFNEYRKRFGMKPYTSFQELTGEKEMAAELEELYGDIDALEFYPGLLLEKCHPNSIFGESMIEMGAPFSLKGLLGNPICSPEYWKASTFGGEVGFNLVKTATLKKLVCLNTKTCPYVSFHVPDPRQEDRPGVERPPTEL
Procedure: as §1, §2, §3

[2] = system: VEGF-induced blood vessel formation; assay: Mouse sponge implantation assay (VEGF-impregnated gelatin sponge, mean vascular density); format: in vivo; details: 100 ng treatment in VEGF sponge, 14 days; relative to VEGF group
Procedure: Prior to experimentation, absorbable gelatin sponge was cut (5 mm × 8 mm) and hydrated in sterile PBS overnight at 4°C. […] The sponges were allowed to solidify at room temperature for one hour before commencement of the experiment. Mice were anesthetized with Avertin (10 mL/kg) prior to experimentation. Hardened gel piece was inserted into incised subcutaneous pocket created laterally. The animals were allowed to recuperate for 14 days. After that, the animals were euthanized and the gel piece was harvested and rinsed with normal saline.
The sponge samples were fixed in 10% formalin (v/v) for 7 days and subjected to histopathological analysis. The number of vessels was counted in 15 consecutive fields using a 20X objective and the mean MVD was calculated [19].
In mouse sponge implantation assay, statistical analysis was performed using SPSS version 16. One-way Analysis of Variance (ANOVA) with post-hoc test of Least Significant Difference (LSD) were utilised with P < 0.05 was considered to be statistically significant. The results were reported as mean ± SEM. […] Data were reported as mean ± SEM.

Row | SMILES | inhibition at 12.5 µg/mL (COX-2) | inhibition at 25 µg/mL (COX-2) | inhibition at 50 µg/mL (COX-2) | inhibition at 100 µg/mL (COX-2) | inhibition at 200 µg/mL (COX-2) | IC50 [1] | Percentage of COX inhibition (%) COX-1 (COX-1; 12.5 μg/ml) | Percentage of COX inhibition (%) COX-1 (COX-1; 25 μg/ml) | Percentage of COX inhibition (%) COX-1 (COX-1; 50 μg/ml) | Percentage of COX inhibition (%) COX-1 (COX-1; 100 μg/ml) | Percentage of COX inhibition (%) COX-1 (COX-1; 200 μg/ml) | % inhibition (of MVD) [2]
1 | CC(=O)Oc1ccccc1C(=O)O [Aspirin] | 33.9 ± 1.07% | 51.38 ± 0.154% | 54.29 ± 0.307% | 59.05 ± 0.153% | 62.42 ± 0.154% | 763 µM | 27.778 ± 0.505% | 36.027 ± 1.347% | 37.879 ± 0.842% | 40.067 ± 1.347% | 46.465 ± 0.505% | 
2 | C[C@@H]1O[C@@H](OC[C@H]2O[C@@H](Oc3c(-c4ccc(O)c(O)c4)oc4cc(O)cc(O)c4c3=O)[C@H](O)[C@@H](O)[C@@H]2O)[C@H](O)[C@H](O)[C@H]1O [Rutin] |  |  |  |  |  | 72.7 µM |  |  |  |  |  | 
3 | CC1(C)Cc2c(-c3ccccc3)c(-c3ccc(Cl)cc3)c(CC(=O)O)n2C1 [licofelone] |  |  |  |  |  |  |  |  |  |  |  | 67.14%
